The test system of series [1] is diffusible Aβ deposits. The experiment in a line: Fluorescence microscopy of AD patient brain slice. The conditions noted are these: FIG. 3D. Details: species or system human.
Series [2] concerns the target T1, Aβ40 aggregates (Homo sapiens, UniProt P05067).
T1 construct: Synthetic Aβ peptides (1-40/42) were purchased from rPeptide; purchased rPeptide (Bogart, Ga.); host or cells: synthetic peptide
In words: Binding constant (Kd) by fluorescence, Aβ aggregates. As to conditions: PBS pH 7.4. How it is done:
(§1) Starting materials and solvents used in the Examples were purchased from commercial vendors and used without further purification, unless otherwise noted. The pH of the PBS buffer was 7.4. Column chromatography was performed on silica gel (SiliCycle Inc., 60 Å, […]) slurry packed into glass columns. Synthetic Aβ peptides (1-40/42) were purchased from rPeptide (Bogart, Ga., 30622). Aggregates for in vitro studies were generated by the slow stirring of Aβ40 in PBS buffer for 3 days at room temperature. CRANAD-101F (Example 1) was dissolved in DMSO to prepare a 25.0 μM stock solution. ^1H and ^13C NMR spectra were recorded at […] and 125 MHz, respectively, and reported in ppm downfield from tetramethylsilane (TMS). Fluorescence measurements were performed using an F-4500 fluorescence spectrophotometer (Hitachi). […]
(§2) To record the fluorescence response of CRANAD-101 with Aβs, the following procedure was used. Step 1: 1.0 mL of PBS buffer was added to a quartz cuvette as a blank control and its fluorescence was recorded with the same parameters as for CRANAD-101. Step 2: The fluorescence emission spectrum of a CRANAD-101 solution (1.0 mL, 250 nM) was recorded with excitation at 420 nm and emission from 450 to 800 nm. […] The emission spectra was recorded (Excitation=420 nm, Emission=450-800 nm). […]

The target in series [3] is T2, Aβ42 oligomers (Homo sapiens, UniProt P05067).
T2 construct: Synthetic Aβ peptides (1-40/42) were purchased from rPeptide; purchased rPeptide (Bogart, Ga.); host or cells: synthetic peptide
T2 sequence (P05067 672-713 limits assumed): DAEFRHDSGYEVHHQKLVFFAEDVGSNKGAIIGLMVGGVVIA
In words: Binding constant (Kd) by fluorescence, Aβ42 oligomers. The conditions noted are these: PBS pH 7.4. How it is done: as §1, §2

Series [4] addresses T3, Aβ42 dimers (Homo sapiens, UniProt P05067).
T3 construct: Synthetic Aβ peptides (1-40/42) were purchased from rPeptide; purchased rPeptide (Bogart, Ga.); host or cells: synthetic peptide
In words: Binding constant (Kd) by fluorescence, Aβ42 dimers. As to conditions: PBS pH 7.4. The procedure: as §1, §2

In series [5] the test system is Aβs, including monomers, dimers, oligomers, and aggregates. In words: Fluorescence spectral testing with Aβs. The series is classed as binding. As to conditions: probe 250 nM, Aβ 250 nM, PBS, excitation 420 nm, FIG. 2. How it is done: (§3) To record the fluorescence response of CRANAD-101 with Aβs, the following procedure was used. Step 1: 1.0 mL of PBS buffer was added to a quartz cuvette as a blank control and its fluorescence was recorded with the same parameters as for CRANAD-101. Step 2: The fluorescence emission spectrum of a CRANAD-101 solution (1.0 mL, 250 nM) was recorded with excitation at 420 nm and emission from 450 to 800 nm. Step 3: To the CRANAD-101 solution from Step 2, 10 μL Aβs (25 μM) was added (final concentration 250 nM). The emission spectra was recorded (Excitation=420 nm, Emission=450-800 nm). The final spectra from Steps 2 and 3 were corrected using the blank control from Step 1.
(§4) The emission peak of CRANAD-101 was approximately 550 nm, and its excitation peak was approximately 420 nm. To confirm whether CRANAD-101 was responsive to Aβs, including monomers, dimers, oligomers, and aggregates, PBS buffer was used as a blank, CRANAD-101 (250 nM, final concentration) was added in PBS buffer and the fluorescence intensity was recorded. Next, Aβ monomer (250 nM, final concentration) was added, and the fluorescence intensity was recorded. The same procedure was then performed for Aβ dimers, Aβ oligomers, and Aβ aggregates. The binding constant (Kd) of CRANAD-101 was also measured for Aβs.

Series [6] is described as follows: Two-photon microscopic imaging of wild type mouse (BBB penetration). The series is classed as in vivo. As to conditions: WT mouse. The procedure:
(§5) To investigate whether CRANAD-101 was capable of penetrating brain blood barrier (BBB), two-photon microscopic imaging was conducted using a 15-month old wild type (WT) mouse. A mouse ([…]) was anesthetized with Ketamine/xylazine (70 mg/kg) and a cranial imaging window was surgically prepared. CRANAD-101 (2.0 mg/kg in a fresh solution containing 15% CREMOPHOR EL®, 15% DMSO and 70% PBS) was injected intravenously at time=0 min by a bolus injection during image acquisition. Two-photon fluorescence excitation was performed with a 900-nm laser (Prairie Ultima). Imaging was performed using a two-photon microscope (Prairie Technologies) equipped with a 20× water immersion objective (N.A. 1.0, Zeiss). Images were collected for 15 seconds per frame 512×512 μm matrix for 45 min with a green (500-550 nm) channel.

The subject of series [7] is Aβ plaques. The experiment in a line: Brain slice testing, fluorescence microscopy of APP/PS1 mouse brain slice. As to conditions: 11-month old APP/PS1 mouse slice, 25 μM, 30 minutes, FIG. 3A. How it is done:
A brain slice of 11-month old APP/PS1 mouse was washed with double-distilled water for 5 minutes, then fixed with 4% formalin for 5 minutes, and washed with double-distilled water. First, a background image of a brain slice was taken using a fluorescence microscope. Next, an image was taken after the slice was incubated with CRANAD-101 (25 μM) for 30 minutes.

The target in series [8] is T4, Aβ42 monomers (Homo sapiens, UniProt P05067).
T4 construct: Synthetic Aβ peptides (1-40/42) were purchased from rPeptide; purchased rPeptide (Bogart, Ga.); host or cells: synthetic peptide
T4 sequence (P05067 672-713 limits assumed): as above
The experiment in a line: Binding constant (Kd) by fluorescence, Aβ42 monomers. The conditions noted are these: PBS pH 7.4. The procedure: as §1, §2

Series [9] deals with Aβ. In words: In vivo PET imaging, 14-month old APP/PS1 and WT mice. Details: species or system mouse. The conditions noted are these: i.v. The procedure: In vivo PET imaging was conducted with 14-month old APP/PS1 mice (Charles River Laboratories, MA) and age-matched wild-type (WT) mice. Mice were injected via tail-vein with 100 μL of 20-30 μCi of [^18F]CRANAD-101 (Example 2) in 10% ethanol saline. MicroPET imaging experiments were performed on a Sophie Biosciences microPET G4 scanner (Culver City, Calif., USA). 60-Minute dynamic imaging was performed under general anesthesia (isoflurane/O2). Imaging analysis was conducted with Amide.
In vivo PET imaging was conducted with 14-month old APP/PS1 mice and age-matched WT mice. Mice were injected (i.v.) with 100 μL of 20-30 μCi of [^18F]CRANAD-101 in 10% ethanol saline. The specific activity was determined to be […] at the time of injection.

The test system of series [10] is Aβ plaques and cerebral amyloid angiopathy (CAA). In words: Two-photon microscopic imaging of APP/PS1 mouse. The series is classed as in vivo. The conditions noted are these: 15-month old APP/PS1 mouse, FIG. 5B. The procedure: as §5
The accumulation of CRANAD-101 in the brain reached a peak at 10 minutes after i.v. injection (FIG. 5C, panel f). To examine whether CRANAD-101 could label Aβ plaques and cerebral amyloid angiopathy (CAA) in vivo, a similar two-photo microscopic imaging procedure was performed with a 15-month old APP/PS1 mouse.

Series [11] in a line: Fluorescence spectrum of the probe. The series is classed as physicochemical. How it is done:
as §3, §4

This note sets out measurements from US12102695B2, “Half-curcuminoids as amyloid-beta pet imaging agents” (The General Hospital Corporation, priority 2016, dated 2024).

T3 sequence (P05067 672-713 limits assumed): as above
T1 sequence (P05067 672-711 limits assumed): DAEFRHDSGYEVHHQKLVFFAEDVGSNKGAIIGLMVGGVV

As to `Cc1nn(-c2ccc(OCCCF)cc2)cc1C=CC1=CC(C2CCC2)=[O+][B-](F)(F)O1` [CRANAD-101, (E)-4-(2-(6-cyclobutyl-2,2-difluoro-2H-1,3,2^4-dioxaborinin-4-yl)vinyl)-1-(4-(3-fluoropropoxy)phenyl)-3-methyl-1H-pyrazole], the “staining of Aβ deposits in AD patient brain slice” value in series [1] is “can stain diffusible Aβ deposits”. Also, the Kd came to 188 ± 104 nM in series [2], 780 ± 173 nM in series [3], 44 ± 18.9 nM in [4] and 11.6 ± 11 nM in series [8]. Moreover, in series [5], the “fluorescence response to Aβs” value is reported as “strong responses to Aβs”. Also, the “crossing of the BBB” value in series [6] (2.0 mg/kg i.v., two-photon, FIG. 5A, 5C) is “quickly crossed the BBB”. Besides, the “time of peak accumulation in the brain” value in series [6] (after i.v. injection 2.0 mg/kg, FIG. 5C panel f) came to 10 min. The “staining of Aβ plaques in brain slice” value in [7] is “Aβ plaques could be imaged after the incubation”. The “penetration of the blood-brain barrier and brain accumulation vs other reported 18F labeled curcumin analogues” value in series [9] was “much higher penetration of the blood-brain barrier (BBB) and brain accumulation”. Also, in series [10], the “labelling of Aβ plaques and CAA in vivo” value was “clearly highlighted Aβ plaques and CAAs”. Also, in series [11], the emission peak entry is “approximately 550 nm”. The excitation peak result in [11] was “approximately 420 nm”.

The Kd is the equilibrium constant for the complex coming apart. A low value points to higher affinity.
